Results taken from patent US6613875B1, “Cyclic peptide tube” (The Scripps Research Institute, priority 1993, dated 2003).
Square brackets hold non-standard residues; d marks the D form.

Assay: Proton transport (collapse of pH gradient) in vesicles with entrapped 5(6)-carboxyfluorescein
Assay type: biochemical
Details: vesicles pH 6.5 inside, pH 5.5 outside
From the text: The proton efflux is expressed in terms of the fractional change in the fluorescence intensity of vesicle entrapped 5(6)-carboxyfluorescein as a function of time (sampling time was at 0.3 seconds interval). Equal molar amounts of channel forming compounds were used in each experiment to allow direct comparisons of channel-mediated proton transport activity. The amount of added channel forming compounds in each experiment ranged from of 2 to 20 nmoles corresponding to approximately 150 channels per liposome for the lowest concentrations to 1100 channels per liposome for the highest amount of added compounds.
Formation of transmembrane channels was also inferred from its highly efficient proton transport activity. Vesicles were prepared having pH 6.5 inside and pH 5.5 in the outside bulk solution. The collapse of the imposed pH gradient in these vesicles, upon formation of the putative transmembrane channel structure, was studied by monitoring the fluorescence intensity of an entrapped pH-sensitive dye. (V.E. Carmichael et al, in J.Am. Chem. Soc. (1989), vol. 111, pages 767-769). […] Unilamellar vesicles were prepared by the reverse-phase evaporation using DPPC, OPPC, cholestrol in the ratio of 1:1:2 in a solution containing 5(6)-carboxyfluorescein (20 mM in phosphate/saline buffer: 137 mM NaCl, 2.6 mM KCl, 6.4 mM Na2HPO4, 1.4 mM KH2PO4, pH 6.5) according to the method of F. Szoka et al. in Proc. Natl. Acad. Sci. USA (1978), vol. 75, pages 4194-4198. […] Vesicles formed in this way are approximately 150 nanometer in diameter as determined by electron microscopy. […] To the cuvett, through an injector port, […] of the channel forming compounds in DMSO was added with continuous fluorescence monitoring at 520 nm (excitation at 470 nm). The observed data were then normalized for comparison into the fractional change in fluorescence ((I0−It)/(I0−I∞)) (V. E. Carmichael et al, in J.Am. Chem. Soc. (1989), vol. 111, pages 767-769)). […]

cyclo[-(Trp-D-Leu)3-Gln-D-Leu-] (cyclo(W[dL]W[dL]W[dL]Q[dL]); SMILES CC(C)C[C@H]1NC(=O)[C@H](CCC(N)=O)NC(=O)[C@@H](CC(C)C)NC(=O)[C@H](Cc2c[nH]c3ccccc23)NC(=O)[C@@H](CC(C)C)NC(=O)[C@H](Cc2c[nH]c3ccccc23)NC(=O)[C@@H](CC(C)C)NC(=O)[C@H](Cc2c[nH]c3ccccc23)NC1=O) [eight residue ion channel forming cyclic peptide, approximately 7.5 Å pore]
collapse of the imposed pH gradient upon addition of peptide: rapid collapse of the pH gradient
